The results in this text go back to patent publication US7981890B2, “Phthalazinone derivatives” (AstraZeneca AB, priority 2007, dated 2011).

In brackets after ≈: the same amount, converted by molar mass.

Series [1] has as its system HeLa cells. Description: Potentiation Factor (PF50), MMS growth inhibition, SRB assay. The series is classed as cell-based. Conditions: with MMS, ratio of IC50 control / IC50 with PARP inhibitor; for mean PF50 at 30 nM: compound at 30 nM; for mean PF50 at 200 nM: compound at 200 nM. On the procedure:
The Potentiation Factor (PF50) for compounds is calculated as a ratio of the IC50 of control cell growth divided by the IC50 of cell growth+PARP inhibitor. Growth inhibition curves for both control and compound treated cells are in the presence of the alkylating agent methyl methanesulfonate (MMS). […] The concentrations of MMS were over a range from 0 to 10 μg/ml.
Cell growth was assessed using the sulforhodamine B (SRB) assay (Skehan, P., et al., (1990) New calorimetric cytotoxicity assay for anticancer-drug screening. J. Natl. Cancer Inst. 82, 1107-1112). 2,000 HeLa cells were seeded into each well of a flat-bottomed 96-well microtiter plate in a volume of 100 μl and incubated for 6 hours at 37° C. […] Cells were allowed to grow for a further 1 hour before the addition of MMS at a range of concentrations (typically 0, 1, 2, 3, 5, 7 and 10 μg/ml) to either untreated cells or PARP inhibitor treated cells. Cells treated with PARP inhibitor alone were used to assess the growth inhibition by the PARP inhibitor.
Cells were left for a further 16 hours before replacing the media and allowing the cells to grow for a further 72 hours at 37° C. The media was then removed and the cells fixed with 100 μl of ice cold 10% (w/v) trichloroacetic acid. The plates were incubated at 4° C. for 20 minutes and then washed four times with water. Each well of cells was then stained with 100 μl of 0.4% (w/v) SRB in 1% acetic acid for 20 minutes before washing four times with 1% acetic acid. Plates were then dried for 2 hours at room temperature. The dye from the stained cells was solubilized by the addition of 100 μl of 10 mM Tris Base into each well. Plates were gently shaken and left at room temperature for 30 minutes before measuring the optical density at 564 nm on a Microquant microtiter plate reader.
In general terms: Sulforhodamine B stains cellular protein and so reports cell mass.

The nature of series [2]: Solubility assay. The series is classed as physicochemical. Conditions: thermodynamic from solid; water; 20 hours at room temperature. How it is done: A typical assay that may be used to assess the solubility of the compounds of the present invention is as follows. The solubility of the compound is assessed in water and phosphate-buffered saline (pbs) at pH 7.4. The samples are all allowed to equilibrate in the solvent (with shaking) for 20 hours at room temperature. After that period, the samples will be visually examined to determine the presence/absence of un-dissolved solid. The samples will be centrifuged or filtered as necessary to remove insoluble material, and the solution analysed to determine solubility of the DS, diluting both aqueous and DMSO samples to a similar concentration with DMSO. The area of the peak obtained by HPLC (using the diode array detector) from the sample will be compared to the area of the peak from the DMSO solution (diluted to the same concentration as the sample) and quantified taking into account the weight of sample taken for initial dissolution. The assumption is made that the sample will be completely soluble in DMSO at the levels used for testing.
Comparing the ratio of the peak areas, and knowing the concentration of the original samples, the solubility may be calculated.
About 1 mg of the sample is weighed accurately into a 4-ml glass vial and exactly 1.0 ml of water, aqueous buffer or DMSO, is added to it by pipette. Each vial is ultrasonicated for up to 2 minutes to assist solublisation of the solid. The samples are retained at room temperature for 20 hours, shaking on an orbital shaker. The vials are examined after this period to determine the presence/absence of un-dissolved solid. The samples should be centrifuged, or filtered through a 0.45 μm filter, to remove insoluble material if necessary, and the filtrate analysed to determine concentration of the compound in solution, after diluting all samples as appropriate with DMSO. 20 μl is injected onto the HPLC using the method shown below, injecting all samples in duplicate. The maximum solubility that can be determined using this method is nominally 1.0 mg/ml, the weight taken divided by the volume of solvent used. […]

The test system of series [3] is BRAC2 complemented (VC8+BAC) cells. Description: VC8 assay, growth inhibition (SRB), complemented cells. The format is cell-based, hamster. To be noted: BRCA2 complemented VC8+BAC cells. How it is done:
(§1) In order to assess the growth inhibitory action of compounds on BRCA2 deficient (VC8−hamster line) and BRAC2 complemented (VC8+BAC) cells the following assay was used to determine GI50 values.
500 VC8 cells or 200 VC8+BAC cells were seeded into each well of a flat-bottomed 96-well microtiter plate in a volume of 90 μl and incubated for 4-6 hours at 37° C. […]
(§2) Cells were left for a further 48 hours before replacing the media with fresh media (no compound) and allowing the cells to grow for a total of 120 hours at 37° C. The medium was then removed and the cells fixed with 50 μl of ice cold 10% (w/v) tricholoracetic acid. The plates were incubated at 4° C. for 30 minutes and then washed three times with water. Each well of cells was then stained with 50 μl of 0.4% (w/v) sulforhodamine B (SRB) in 1% acetic acid for 15 minutes before washing three times with 1% acetic acid. Plates were then dried for 2 hours at room temperature. The dye from the stained cells was solubilised by the addition of 100 μl of 10 mM Tris Base into each well. Plates were then shaken and the optical density at 564 nm was measured on a Microquant microtiter plate reader.
The GI50 is calculated as the μM concentration of compound required to inhibit 50% of cell growth.

Series [4] has as its system BRCA2 deficient (VC8) cells. Put plainly: VC8 assay, growth inhibition (SRB). The format is cell-based, hamster. Conditions: V-C8. How it is done: as §1
500 VC8 cells or 200 VC8+BAC cells were seeded into each well of a flat-bottomed 96-well microtiter plate in a volume of 90 μl and incubated for 4-6 hours at 37° C. All compounds were diluted in media (Dulbecco's Modified Eagle's Medium (DMEM), 10% Fetal Bovine Serum, Penicillin/Sretptomycin/Glutamine) and added to the cells at final concentrations of between 0 and 300 nM.
as §2, with “reader. […]” for “reader.”

Take `C[C@@H]1NC(=O)N(c2cc(Cc3n[nH]c(=O)c4c3CCCC4)ccc2F)C1=O` (single isomer, unassigned) [Compound 13a]: in series [1], the “mean PF50 at 30 nM” value is 25.

As to `C[C@H]1NC(=O)N(c2cc(Cc3n[nH]c(=O)c4c3CCCC4)ccc2F)C1=O` (single isomer, unassigned) [Compound 13b], the “mean PF50 at 30 nM” value in series [1] is on record as 9.

As a reminder, the solubility is the concentration that dissolves in the medium under given conditions. The low end stands for little dissolved substance, the high end for much dissolved substance. For `CC1NC(=O)N(c2cccc(Cc3n[nH]c(=O)c4c3CCCC4)c2)C1=O` (stereo not shown) [Compound 6, 5-Methyl-3-[3-(4-oxo-3,4,5,6,7,8-hexahydro-phthalazin-1-ylmethyl)-phenyl]-imidazolidine-2,4-dione], the “mean PF50 at 200 nM” value in series [1] worked out at 20. For the same molecule, in series [2], the solubility at 20 h stood at 500 µg/mL (≈ 1420 µM).

As a reminder, the GI50 is the concentration at which growth is held to half of that of the control. As to `CC1NC(=O)N(c2cc(Cc3n[nH]c(=O)c4c3CCCC4)ccc2F)C1=O` (stereo not shown) [Compound 13, 3-[2-Fluoro-5-(4-oxo-3,4,5,6,7,8-hexahydro-phthalazin-1-ylmethyl)-phenyl]-5-methylimidazolidine-2,4-dione], in series [1], the “mean PF50 at 200 nM” value was 57. Moreover, the GI50 in series [3] was found to be 29 µM; in series [4] it was 0.0105 µM. Besides, in series [2], the solubility at 20 h came out at 900 µg/mL (≈ 2430 µM).

In the case of `CC1(C)NC(=O)N(c2cccc(Cc3n[nH]c(=O)c4c3CCCC4)c2)C1=O` [Compound 15, 5,5-dimethyl-3-[3-[(4-oxo-5,6,7,8-tetrahydro-3H-phthalazin-1-yl)methyl]phenyl]imidazolidine-2,4-dione], in series [1], the “mean PF50 at 200 nM” value stood at 2. The solubility at 20 h in series [2] came to 105 µg/mL (≈ 287 µM).
